The term IC50 denotes the concentration needed to halve the response being measured. Read a low IC50 as higher potency.

The first assay concerns neointima formation.
Test: not given
The conditions noted are these: rats; cited from earlier work.
`COc1ccc(CNc2nc(N(CCO)CCO)nc3c2ncn3C(C)C)cc1` [CVT-313]: the “inhibition of neointima formation” value is reported as “greater than 80%”.

The target of the next assay is Cdk9/cyclinT1 (Homo sapiens, UniProt P50750). The experiment in a line: Cdk9/cyclinT1 IMAP Protocol (fluorescence polarization kinase assay). The settings on record: Cdk9_cyclinT1_IC50, Table V; generated using one of the two Cdk9/cyclinT1 assays (IMAP or Alpha Screen), not stated which; ATP 6 uM.
Chain of Cdk9/cyclinT1 (P50750 whole entry): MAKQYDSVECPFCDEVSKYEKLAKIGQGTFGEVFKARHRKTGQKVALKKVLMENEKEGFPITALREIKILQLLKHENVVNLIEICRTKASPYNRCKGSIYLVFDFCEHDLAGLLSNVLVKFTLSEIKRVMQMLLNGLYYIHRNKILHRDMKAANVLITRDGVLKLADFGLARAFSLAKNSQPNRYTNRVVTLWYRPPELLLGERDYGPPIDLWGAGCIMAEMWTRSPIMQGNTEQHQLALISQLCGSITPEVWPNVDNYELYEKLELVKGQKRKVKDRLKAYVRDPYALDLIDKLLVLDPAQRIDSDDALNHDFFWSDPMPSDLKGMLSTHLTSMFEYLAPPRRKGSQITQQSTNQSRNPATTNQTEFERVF
Chain of Cdk9/cyclinT1 (O60563 whole entry partner): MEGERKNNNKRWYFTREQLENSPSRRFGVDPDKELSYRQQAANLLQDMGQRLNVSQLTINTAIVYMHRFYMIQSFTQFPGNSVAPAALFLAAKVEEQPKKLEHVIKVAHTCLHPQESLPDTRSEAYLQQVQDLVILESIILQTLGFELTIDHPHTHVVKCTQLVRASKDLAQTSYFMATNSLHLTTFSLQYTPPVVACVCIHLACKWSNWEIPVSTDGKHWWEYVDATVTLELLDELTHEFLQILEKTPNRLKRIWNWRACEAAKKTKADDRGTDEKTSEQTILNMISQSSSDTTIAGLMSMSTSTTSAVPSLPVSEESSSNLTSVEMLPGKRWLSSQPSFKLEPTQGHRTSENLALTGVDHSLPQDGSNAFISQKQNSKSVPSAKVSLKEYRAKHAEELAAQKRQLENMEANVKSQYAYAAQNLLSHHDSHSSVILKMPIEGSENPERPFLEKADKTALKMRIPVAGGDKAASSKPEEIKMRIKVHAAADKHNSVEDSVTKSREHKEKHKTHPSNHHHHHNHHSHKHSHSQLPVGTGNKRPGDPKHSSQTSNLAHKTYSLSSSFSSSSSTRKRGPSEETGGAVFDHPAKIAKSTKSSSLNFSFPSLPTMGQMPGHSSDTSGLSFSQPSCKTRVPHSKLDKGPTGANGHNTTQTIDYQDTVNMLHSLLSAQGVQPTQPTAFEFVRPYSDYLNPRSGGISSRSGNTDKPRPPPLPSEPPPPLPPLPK
The molecule `CC1(C)C[C@@H](CNc2cccc(-c3cc(NC(=O)[C@H]4CNCCO4)ncc3Cl)n2)CCO1` (single isomer, unassigned) [Example 131] gave an IC50 of 38 nM. This lies in the double-digit nanomolar range. As to `CC1(CNc2nc(-c3cc(NC(=O)[C@@H]4CCCNC4)ncc3Cl)ccc2F)CCOCC1` [Example 208, (R)-Piperidine-3-carboxylic acid {5′-chloro-5-fluoro-6-[(4-methyl-tetrahydro-pyran-4-ylmethyl)-amino]-[2,4′]bipyridinyl-2′-yl}-amide], the concentration for half-maximal inhibition (IC50) is 1 nM. The same measure, in the same setting: to `CC(C)S(=O)(=O)N1CCC[C@H](C(=O)Nc2cc(-c3nc(NC[C@H]4CCOC(C)(C)C4)ccc3Cl)c(Cl)cn2)C1` (single isomer, unassigned) [Example 173] belongs 1 nM; to `C[C@@H]1CC[C@@H](C(=O)Nc2cc(-c3cccc(NC[C@@H]4CCOC(C)(C)C4)n3)c(Cl)cn2)CN1` (mixture of isomers) [Example 225, (3R,6R)-/(3S,6S)-6-Methyl-piperidine-3-carboxylic acid {5′-chloro-6-[((R)-2,2-dimethyl-tetrahydro-pyran-4-ylmethyl)-amino]-[2,4′]bipyridinyl-2′-yl}-amide], 1 nM; to `O=C(Nc1cc(-c2cccc(NCC3CCOCC3)n2)c(Cl)cn1)C1CCCOC1` (centres unmarked) [Example 62, Tetrahydro-pyran-3-carboxylic acid {5′-chloro-6-[(tetrahydro-pyran-4-ylmethyl)-amino]-[2,4′]bipyridinyl-2′-yl}-amide], 19 nM. Same read-out and setting: to `CCN1CCCC(C(=O)Nc2cc(-c3cccc(NCC4CCOCC4)n3)c(Cl)cn2)C1` (centres unmarked) [Example 9, 1-Ethyl-piperidine-3-carboxylic acid {5′-chloro-6-[(tetrahydro-pyran-4-ylmethyl)-amino]-[2,4′]bipyridinyl-2′-yl}-amide] belongs 144 nM; to `COC(=O)N1CCC[C@H](C(=O)Nc2cc(-c3nc(NC[C@H]4CCOC(C)(C)C4)ccc3Cl)c(Cl)cn2)C1` (single isomer, unassigned) [Example 175], 2 nM.

Regarding `O=C(Nc1cc(-c2cccc(NCC3CCOCC3)n2)c(Cl)cn1)[C@@H]1CCNC1` [Example 50, (R)-Pyrrolidine-3-carboxylic acid {5′-chloro-6-[(tetrahydro-pyran-4-ylmethyl)-amino]-[2,4′]bipyridinyl-2′-yl}-amide], the IC50 was less than 8 nM.

As for `O=C(Nc1cc(-c2nc(NCC3CCOCC3)ccc2Cl)c(Cl)cn1)C1CCCCNC1` (centres unmarked) [Example 194, Azepane-3-carboxylic acid {3,5′-dichloro-6-[(tetrahydro-pyran-4-ylmethyl)-amino]-[2,4′]bipyridinyl-2′-yl}-amide], the IC50 was determined as 1 nM. Same read-out and setting: to `C[C@@H]1CC[C@@H](C(=O)Nc2cc(-c3cccc(NC[C@H]4CCOC(C)(C)C4)n3)c(Cl)cn2)CN1` (single isomer, unassigned) [Example 244] belongs 1 nM; to `C[C@@H]1CNC[C@H](C(=O)Nc2cc(-c3cccc(NCC4CCOCC4)n3)c(Cl)cn2)C1` (racemic) [Example 125, (3R,5S)-/(3S,5R)-5-Methyl-piperidine-3-carboxylic acid {5′-chloro-6-[(tetrahydro-pyran-4-ylmethyl)-amino]-[2,4′]bipyridinyl-2′-yl}-amide], 9 nM; to `O=C(Nc1cc(-c2cccc(NCC3CCOCC3)n2)c(Cl)cn1)C1CNC1` [Example 119, Azetidine-3-carboxylic acid {5′-chloro-6-[(tetrahydro-pyran-4-ylmethyl)-amino]-[2,4′]bipyridinyl-2′-yl}-amide], 14 nM. On the same count and under the same terms, the result for `CC[C@H]1CC[C@H](C(=O)Nc2cc(-c3ccc(F)c(NCC4CCOCC4)n3)c(Cl)cn2)CN1` (single isomer, unassigned) [Example 257] reads 5 nM; that for `N[C@@H]1CC[C@H](C(=O)Nc2cc(-c3nc(NCC4CCOCC4)ccc3Cl)c(Cl)cn2)C1` [Example 99, (1S,3R)-3-Amino-cyclopentanecarboxylic acid {3,5′-dichloro-6-[(tetrahydro-pyran-4-ylmethyl)-amino]-[2,4′]bipyridinyl-2′-yl}-amide], less than 8 nM; that for `C[C@@H]1CC(CNc2cccc(-c3cc(NC(=O)[C@@H]4CCNC4)ncc3Cl)n2)C[C@H](C)O1` (stereo partly drawn) [Example 170, (R)-Pyrrolidine-3-carboxylic acid {5′-chloro-6-[((2R,6S)-2,6-dimethyl-tetrahydro-pyran-4-ylmethyl)-amino]-[2,4′]bipyridinyl-2′-yl}-amide], 1 nM.

Take `CC(C)O[C@H]1CNC[C@@H]1C(=O)Nc1cc(-c2cccc(NCC3(C)CCOCC3)n2)c(Cl)cn1` [Example 249, (3S,4R)-4-Isopropoxy-pyrrolidine-3-carboxylic acid {5′-chloro-6-[(4-methyl-tetrahydro-pyran-4-ylmethyl)-amino]-[2,4′]bipyridinyl-2′-yl}-amide]: the IC50 came out at 9 nM. In turn, `O=C(Nc1cc(-c2nc(NCC3CCOCC3)ccc2Cl)c(Cl)cn1)C1CNCCOC1` (centres unmarked) [Example 191, [1,4]Oxazepane-6-carboxylic acid {3,5′-dichloro-6-[(tetrahydro-pyran-4-ylmethyl)-amino]-[2,4′]bipyridinyl-2′-yl}-amide] had an IC50 of 1 nM.

Turning to `N#CC1(CNc2cccc(-c3cc(NC(=O)[C@@H]4CCCNC4)ncc3Cl)n2)CCOCC1` [Example 238, (R)-Piperidine-3-carboxylic acid {5′-chloro-6-[(4-cyano-tetrahydro-pyran-4-ylmethyl)-amino]-[2,4′]bipyridinyl-2′-yl}-amide], the concentration for half-maximal inhibition (IC50) was 1 nM. Same read-out and setting: to `CC[C@H]1CC[C@@H](C(=O)Nc2cc(-c3ccc(F)c(NCC4CCOCC4)n3)c(Cl)cn2)CN1` (racemic) [Example 252, (3R,6S)-/(3S,6R)-6-Ethyl-piperidine-3-carboxylic acid {5′-chloro-5-fluoro-6-[(tetrahydro-pyran-4-ylmethyl)-amino]-[2,4′]bipyridinyl-2′-yl}-amide] belongs 1 nM.

Still in this assay, the particulars now being: Cdk9_cyclinT1_IC50, generated using one of the two Cdk9/cyclinT1 assays (IMAP or Alpha Screen), not specified per value; ATP 6 uM.
Consider `O=C(Nc1cc(-c2cc(NCC3CCOCC3)cnc2Cl)c(Cl)cn1)C1CNCCOC1` (centres unmarked) [Example 316, [l,4]Oxazepane-6-carboxylic acid {2,5′-dichloro-5-[(tetrahydro-pyran-4-ylmethyl)-amino]-[3,4′]bipyridinyl-2′-yl}-amide], for which the midpoint of inhibition, the IC50, lay at 6 nM. This counts as single-digit nanomolar.

Take `CC(C)C(=O)Nc1cc(-c2cc(NCC3CCOCC3)cnc2Cl)c(Cl)cn1` [Example 313, N-{2,5′-Dichloro-5-[(tetrahydro-pyran-4-ylmethyl)-amino]-[3,4′]bipyridinyl-2′-yl}-isobutyramide]: the IC50 is less than 8 nM. `O=C(Nc1cc(-c2cc(NCC3CCOCC3)cnc2Cl)c(Cl)cn1)[C@@H]1CCCNC1` [Example 312, (R)-Piperidine-3-carboxylic acid {2,5′-dichloro-5-[(tetrahydro-pyran-4-ylmethyl)-amino]-[3,4′]bipyridinyl-2′-yl}-amide] had a concentration for half-maximal inhibition (IC50) of less than 8 nM.

These data come from US20110130380A1, “Heteroaryl Kinase Inhibitors” (priority 2009, published 2011).
